Results from ChEMBL document CHEMBL5465560, “Selectivity Literature for EUbOPEN Chemogenomic Library” (2024).
One block for each molecule: values may come before it.

How the values were obtained:
[1] = target: T1, Serine/threonine-protein kinase ULK1 (Homo sapiens) (UniProt O75385); experiment: Selectivity interaction (KinomeScan (DiscoverX)) EUB0001049a ULK1; details: at 1 µM
T1 sequence (whole entry): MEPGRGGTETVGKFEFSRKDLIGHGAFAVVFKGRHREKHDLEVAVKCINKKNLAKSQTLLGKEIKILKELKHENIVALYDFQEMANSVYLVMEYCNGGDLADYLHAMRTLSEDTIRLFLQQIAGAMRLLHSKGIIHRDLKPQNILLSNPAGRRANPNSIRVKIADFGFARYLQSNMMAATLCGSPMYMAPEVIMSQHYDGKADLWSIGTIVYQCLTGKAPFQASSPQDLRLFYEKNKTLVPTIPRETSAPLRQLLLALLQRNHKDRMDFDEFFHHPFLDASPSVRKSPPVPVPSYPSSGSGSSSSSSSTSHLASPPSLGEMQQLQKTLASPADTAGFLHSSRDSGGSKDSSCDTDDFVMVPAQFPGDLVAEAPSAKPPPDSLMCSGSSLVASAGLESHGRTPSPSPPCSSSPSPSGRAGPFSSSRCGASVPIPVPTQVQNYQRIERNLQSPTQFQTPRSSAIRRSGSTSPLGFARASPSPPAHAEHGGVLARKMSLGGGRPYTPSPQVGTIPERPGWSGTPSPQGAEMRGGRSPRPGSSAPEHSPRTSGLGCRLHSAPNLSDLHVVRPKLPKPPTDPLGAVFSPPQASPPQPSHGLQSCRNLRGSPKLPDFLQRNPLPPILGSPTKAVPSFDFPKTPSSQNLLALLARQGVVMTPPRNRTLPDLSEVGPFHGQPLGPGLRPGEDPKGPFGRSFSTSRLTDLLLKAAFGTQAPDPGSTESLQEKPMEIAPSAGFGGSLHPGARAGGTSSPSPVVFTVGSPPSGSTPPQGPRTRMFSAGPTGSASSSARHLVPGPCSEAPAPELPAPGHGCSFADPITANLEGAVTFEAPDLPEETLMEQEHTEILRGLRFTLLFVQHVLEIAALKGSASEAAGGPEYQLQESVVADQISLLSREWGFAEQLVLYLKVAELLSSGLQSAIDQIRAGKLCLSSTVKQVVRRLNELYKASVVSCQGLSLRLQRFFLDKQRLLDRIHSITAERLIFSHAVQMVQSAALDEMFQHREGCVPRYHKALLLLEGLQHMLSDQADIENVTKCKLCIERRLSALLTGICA

[2] = target: Leucine-rich repeat serine/threonine-protein kinase 2 (Homo sapiens, UniProt Q5S007); experiment: (§1) Selectivity interaction (Adapta Assay) EUB0001632a LRRK2; details: at 10 µM
Chain of Leucine-rich repeat serine/threonine-protein kinase 2 (Q5S007 whole entry): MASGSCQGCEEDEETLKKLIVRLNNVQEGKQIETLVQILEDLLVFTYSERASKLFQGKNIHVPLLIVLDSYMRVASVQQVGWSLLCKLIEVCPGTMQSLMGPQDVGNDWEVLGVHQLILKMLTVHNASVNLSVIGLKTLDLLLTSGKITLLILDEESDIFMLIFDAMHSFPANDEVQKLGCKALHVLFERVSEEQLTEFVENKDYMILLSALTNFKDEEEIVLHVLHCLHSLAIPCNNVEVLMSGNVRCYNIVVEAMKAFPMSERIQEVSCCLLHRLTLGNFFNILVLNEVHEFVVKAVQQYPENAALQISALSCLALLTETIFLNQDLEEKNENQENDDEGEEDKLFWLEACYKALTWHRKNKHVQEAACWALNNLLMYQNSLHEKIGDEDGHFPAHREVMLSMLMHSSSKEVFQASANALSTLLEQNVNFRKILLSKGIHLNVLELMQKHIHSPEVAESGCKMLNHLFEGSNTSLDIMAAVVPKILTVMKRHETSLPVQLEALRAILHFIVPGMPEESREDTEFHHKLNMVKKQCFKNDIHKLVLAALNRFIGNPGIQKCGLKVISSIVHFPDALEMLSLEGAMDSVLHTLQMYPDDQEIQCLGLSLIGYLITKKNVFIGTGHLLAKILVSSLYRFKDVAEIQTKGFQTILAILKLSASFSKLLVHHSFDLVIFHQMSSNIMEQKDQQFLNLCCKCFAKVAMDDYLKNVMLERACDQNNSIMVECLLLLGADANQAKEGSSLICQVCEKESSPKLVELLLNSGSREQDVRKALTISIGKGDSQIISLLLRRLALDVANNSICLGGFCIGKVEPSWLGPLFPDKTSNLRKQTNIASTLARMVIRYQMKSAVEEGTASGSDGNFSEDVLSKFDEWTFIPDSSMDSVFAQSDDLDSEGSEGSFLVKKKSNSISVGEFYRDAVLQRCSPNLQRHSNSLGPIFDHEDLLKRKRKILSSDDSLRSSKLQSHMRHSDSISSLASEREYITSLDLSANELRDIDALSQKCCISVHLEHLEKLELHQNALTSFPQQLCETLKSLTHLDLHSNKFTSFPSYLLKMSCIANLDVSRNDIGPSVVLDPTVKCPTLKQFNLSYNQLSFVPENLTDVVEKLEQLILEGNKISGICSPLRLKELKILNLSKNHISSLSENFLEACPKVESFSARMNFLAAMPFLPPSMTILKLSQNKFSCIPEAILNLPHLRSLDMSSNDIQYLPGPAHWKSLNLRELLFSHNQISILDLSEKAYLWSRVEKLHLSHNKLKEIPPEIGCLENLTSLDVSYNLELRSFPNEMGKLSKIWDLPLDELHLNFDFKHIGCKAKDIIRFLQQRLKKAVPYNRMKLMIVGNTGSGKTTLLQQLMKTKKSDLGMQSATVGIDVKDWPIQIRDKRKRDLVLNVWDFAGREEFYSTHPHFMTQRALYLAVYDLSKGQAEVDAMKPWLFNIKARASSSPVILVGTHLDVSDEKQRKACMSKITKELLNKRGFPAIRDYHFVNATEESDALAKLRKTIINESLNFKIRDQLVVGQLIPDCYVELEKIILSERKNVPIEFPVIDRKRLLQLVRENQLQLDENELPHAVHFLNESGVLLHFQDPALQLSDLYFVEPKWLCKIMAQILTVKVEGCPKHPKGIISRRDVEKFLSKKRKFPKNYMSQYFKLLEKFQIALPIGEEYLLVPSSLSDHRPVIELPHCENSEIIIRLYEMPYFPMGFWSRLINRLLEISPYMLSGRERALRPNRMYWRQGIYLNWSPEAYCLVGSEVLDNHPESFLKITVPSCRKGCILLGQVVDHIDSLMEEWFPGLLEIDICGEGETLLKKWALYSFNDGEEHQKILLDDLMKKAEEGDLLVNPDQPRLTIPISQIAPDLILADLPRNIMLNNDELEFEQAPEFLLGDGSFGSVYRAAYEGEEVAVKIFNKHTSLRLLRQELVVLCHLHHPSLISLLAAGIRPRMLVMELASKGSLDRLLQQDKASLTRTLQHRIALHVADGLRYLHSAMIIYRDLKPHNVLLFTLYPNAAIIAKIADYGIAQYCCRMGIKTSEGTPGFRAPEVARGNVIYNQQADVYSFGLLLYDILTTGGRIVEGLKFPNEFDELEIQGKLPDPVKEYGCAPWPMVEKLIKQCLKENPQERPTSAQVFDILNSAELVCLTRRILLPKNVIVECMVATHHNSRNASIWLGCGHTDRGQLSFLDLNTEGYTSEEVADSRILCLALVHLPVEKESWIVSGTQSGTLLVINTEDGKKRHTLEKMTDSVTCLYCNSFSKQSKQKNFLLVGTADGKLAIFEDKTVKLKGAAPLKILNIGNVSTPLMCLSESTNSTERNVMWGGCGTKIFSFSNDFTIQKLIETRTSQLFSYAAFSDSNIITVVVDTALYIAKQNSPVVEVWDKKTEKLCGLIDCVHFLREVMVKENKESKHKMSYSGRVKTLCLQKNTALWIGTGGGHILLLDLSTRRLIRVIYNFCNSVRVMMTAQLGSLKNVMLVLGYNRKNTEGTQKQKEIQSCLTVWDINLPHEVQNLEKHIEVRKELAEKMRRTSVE

[3] = system: Leucine-rich repeat serine/threonine-protein kinase 2 (Homo sapiens), Q5S007 [R1441C]; experiment: as §1; details: at 10 µM
Chain of Leucine-rich repeat serine/threonine-protein kinase 2 (Homo sapiens), Q5S007 [R1441C] (Q5S007 whole entry R1441C): as the sequence (Q5S007 whole entry) above, with R1441C counted along it

[4] = system: Leucine-rich repeat serine/threonine-protein kinase 2 (Homo sapiens), Q5S007 [G2019S]; experiment: as §1; details: at 10 µM
Chain of Leucine-rich repeat serine/threonine-protein kinase 2 (Homo sapiens), Q5S007 [G2019S] (Q5S007 whole entry G2019S): as the sequence (Q5S007 whole entry) above, with G2019S counted along it

[5] = system: Leucine-rich repeat serine/threonine-protein kinase 2 (Homo sapiens), Q5S007 [I2020T]; experiment: as §1; details: at 10 µM
Chain of Leucine-rich repeat serine/threonine-protein kinase 2 (Homo sapiens), Q5S007 [I2020T] (Q5S007 whole entry I2020T): as the sequence (Q5S007 whole entry) above, with I2020T counted along it

[6] = target: T2, Interleukin-1 receptor-associated kinase 4 (Homo sapiens) (UniProt Q9NWZ3); experiment: Selectivity interaction (ProQinase) EUB0000171b IRAK4
T2 sequence (whole entry): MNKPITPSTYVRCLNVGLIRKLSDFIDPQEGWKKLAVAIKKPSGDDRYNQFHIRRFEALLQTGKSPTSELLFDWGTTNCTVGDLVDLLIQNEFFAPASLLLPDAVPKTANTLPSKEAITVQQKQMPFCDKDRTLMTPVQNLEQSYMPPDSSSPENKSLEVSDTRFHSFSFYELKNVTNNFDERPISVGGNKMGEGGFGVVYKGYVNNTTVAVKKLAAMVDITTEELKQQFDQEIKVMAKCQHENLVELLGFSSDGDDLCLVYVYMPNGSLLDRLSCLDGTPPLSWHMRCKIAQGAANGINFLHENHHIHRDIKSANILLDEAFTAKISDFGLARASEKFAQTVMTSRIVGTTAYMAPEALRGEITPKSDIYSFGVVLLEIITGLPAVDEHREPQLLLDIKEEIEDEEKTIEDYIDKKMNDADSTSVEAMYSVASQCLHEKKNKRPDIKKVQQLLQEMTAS

[7] = target: T3, Serine/threonine-protein kinase D1 (Homo sapiens) (UniProt Q15139); experiment: Selectivity interaction (KinomeScan (DiscoverX)) EUB0000607a PRKD1; details: at 10 µM
T3 sequence (whole entry): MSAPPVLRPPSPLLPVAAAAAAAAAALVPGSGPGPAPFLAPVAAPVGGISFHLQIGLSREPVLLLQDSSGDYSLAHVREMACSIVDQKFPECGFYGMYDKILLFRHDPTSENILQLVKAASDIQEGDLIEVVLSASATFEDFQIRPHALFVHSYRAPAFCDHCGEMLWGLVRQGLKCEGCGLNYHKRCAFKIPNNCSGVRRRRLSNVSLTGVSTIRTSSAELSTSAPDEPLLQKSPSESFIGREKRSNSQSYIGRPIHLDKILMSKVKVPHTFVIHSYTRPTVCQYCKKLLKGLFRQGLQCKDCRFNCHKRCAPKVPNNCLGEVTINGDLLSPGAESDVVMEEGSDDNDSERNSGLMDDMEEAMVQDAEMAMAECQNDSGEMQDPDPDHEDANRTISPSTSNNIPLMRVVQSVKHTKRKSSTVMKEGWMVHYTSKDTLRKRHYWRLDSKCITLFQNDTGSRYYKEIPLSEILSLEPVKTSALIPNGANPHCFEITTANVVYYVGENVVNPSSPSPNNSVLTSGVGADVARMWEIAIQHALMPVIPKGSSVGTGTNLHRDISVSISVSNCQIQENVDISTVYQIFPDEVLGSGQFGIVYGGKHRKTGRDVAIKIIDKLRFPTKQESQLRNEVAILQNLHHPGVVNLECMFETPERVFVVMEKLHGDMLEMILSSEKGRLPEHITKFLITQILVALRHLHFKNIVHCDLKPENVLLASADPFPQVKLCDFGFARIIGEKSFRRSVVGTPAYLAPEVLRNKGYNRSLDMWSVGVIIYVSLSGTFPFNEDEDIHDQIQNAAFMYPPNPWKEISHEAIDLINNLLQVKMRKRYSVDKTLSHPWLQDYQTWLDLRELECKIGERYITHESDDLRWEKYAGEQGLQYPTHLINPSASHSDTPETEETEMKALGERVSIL

[8] = target: Calcium/calmodulin-dependent protein kinase type 1G (Homo sapiens) (UniProt Q96NX5); experiment: Selectivity interaction (Kinase panel (DSF assay)) EUB0001558a CAMK1G
Chain of Calcium/calmodulin-dependent protein kinase type 1G (Homo sapiens) (Q96NX5 whole entry): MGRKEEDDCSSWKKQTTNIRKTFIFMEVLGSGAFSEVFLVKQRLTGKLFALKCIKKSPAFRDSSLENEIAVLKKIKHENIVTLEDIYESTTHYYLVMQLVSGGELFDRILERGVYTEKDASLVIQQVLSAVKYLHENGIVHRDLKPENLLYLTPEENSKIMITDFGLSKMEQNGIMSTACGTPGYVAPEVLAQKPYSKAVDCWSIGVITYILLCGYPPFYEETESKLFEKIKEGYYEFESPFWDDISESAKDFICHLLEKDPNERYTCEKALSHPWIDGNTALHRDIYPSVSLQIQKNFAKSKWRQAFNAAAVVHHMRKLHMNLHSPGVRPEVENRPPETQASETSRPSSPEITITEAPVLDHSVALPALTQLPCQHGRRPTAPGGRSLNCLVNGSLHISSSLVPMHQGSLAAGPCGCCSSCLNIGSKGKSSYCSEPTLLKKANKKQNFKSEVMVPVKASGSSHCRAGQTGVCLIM

SMILES: COc1cc(Nc2nc(C)cc(-c3cnn4nc(OC)ccc34)n2)cc(C(F)(F)F)c1
- % of control [1]: 86%

- % of inhibition [2]: 18.9%
- % of inhibition [3]: 96.1%
- % of inhibition [4]: 23.9%
- % of inhibition [5]: 100%
SMILES: Cn1cc(-n2cnc3c(NCc4nc5cc(Cl)c(Cl)cc5[nH]4)nc(N4CCOCC4)nc32)cn1

- % of control ([6]; at 1 µM): 85%
- % of control ([6]; at 5 µM): 56%
SMILES: C=CC(=O)Nc1cccc(C(=O)Nc2ccc(Nc3cc(-c4[nH]c(SC)nc4C)ccn3)cc2)c1

SMILES: CNC(=O)Nc1ccc(-c2nc(N3CC4CCC(C3)O4)c3cnn(C4CCC5(CC4)OCCO5)c3n2)cc1
- % of control [7]: 100%

SMILES: CC(C)(O)[C@H](F)CN1Cc2cc(NC(=O)c3cnn4cccnc34)c(N3CCOCC3)cc2C1=O
- dTM [8]: 0.4 K
